Assay results: US9060966B2, “Use of 2,5-dihydroxybenzene derivatives for the treatment of arthritis and pain” (priority 2006, dated 2015)

What was measured:
Leishmania major = assay: Experimental infection with Leishmania major in a mouse model (paw thickness); format: in vivo, mice; settings: 200 mg/kg/day i.p. for 14 days from third week after infection, effect from the eighth week
Description: (§1) The vehicle group consisted of infected animals that received daily injections of saline (0.9% NaCl) during the same period as DHBS. Results are expressed as the mean±the standard deviation of the increases in size of the inoculated paw (right) compared to the non-inoculated paw (left) in mm obtained with a Vernier caliper each week from 0 to 10. ** indicates p<0.01 vs. the vehicle-treated group by a Student t-test. 6 animals were used for each group.
as §1, with “from” for “during”, “moment of the infection, while the control group consisted of non-infected animals.” for “same period as DHBS.”, “9. *” for “10. **”, “p<0.05” for “p<0.01”, “vehicle” for “vehicle-treated”, “7” for “6”
as §1, with “from” for “during”, “third week after the infection.” for “same period as DHBS.”, “9. *” for “10. **”, “p<0.05” for “p<0.01”, “vehicle” for “vehicle-treated”, “7” for “6”
This model is based in the massive inoculation of Leishmania promatigotes in the mouse paw pad. Under these conditions, the parasite induces a progressive inflammation correlated with the multiplication of parasites at the site of inoculation. BALB/c strain female mice that developed severe and uncontrolled injuries were used (Foote S J, Handman E. Brief Funct Genomic Proteomic, 2005). This model has been used in pharmacology to monitor the therapeutic capacity of new leishmanicide compounds and the preventive capacity of potential vaccines against leishmaniasis ((Nelson K G et al. Antimicrob Agents Chemother. 2006).
The animals were inoculated with 5×10^6 of L. major promastigotes (strain Hervás) in 50 μL of PBS into the plantar pad of the right back paw. As negative control of the infection, a group of mice inoculated with 50 μL of PBS was used. The sizes of the lesions were measured every 7 days until the animals were sacrificed (week 9) using a Vernier caliper. The thickness of the right back paw (infected) and the left back paw (uninfected) of all the animals was measured at the base of the fifth toe. The progression of the inflammation is represented as the difference in thickness between the infected and the non-infected paws. […]

[1] = target: T1, fibroblast growth factor-1 (FGF-1) (Homo sapiens, UniProt P05230); assay: Inhibition of fibroblast mitogenesis induced by FGF-1 in Balb/c 3T3 fibroblasts; format: cell-based; parameters: host or cells: added to Balb/c 3T3 fibroblasts (mouse); settings: quiescent Balb/c 3T3 cultures; potassium salts, except 2-acetoxy-5-hydroxybenzene sulfonate as calcium salt
T1 sequence (P05230 whole entry, species assumed): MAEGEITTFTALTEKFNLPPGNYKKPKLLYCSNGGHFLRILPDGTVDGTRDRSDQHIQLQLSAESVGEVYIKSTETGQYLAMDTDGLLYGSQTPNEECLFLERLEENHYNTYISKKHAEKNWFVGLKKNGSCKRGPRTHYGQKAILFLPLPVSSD
Experimental: The evaluated compounds were used in the form of potassium salt, except in the first case in which calcium salt was used. The experiments were carried out as described in Fernandez-Tornero C et al. J Biol Chem, 2003.

[2] = target: T1, fibroblast growth factor-1 (FGF-1); assay: Co-crystallisation with FGF-1 (crystal diffraction of complexes); format: binding; settings: for acetoxyl groups of the compound when bound to the protein: electron density contoured at 1σ; for binding site on FGF-1 in the crystal complex: reference: site of 2,5-dihydroxybenzene sulfonic acid, lysine 132
Description: (§2) FIG. 24. 2-acetoxy-5-hydroxybenzenesulfonic acid co-crystallized with fibroblast growth factor-1. […] The compound occupies a place that is very close to that described occupied by 2,5-dihydroxybenzenesulfonic acid, the aromatic ring of which forms a cation-σ bond with the N^ε group of lysine 132, which is marked in panel A as reference. […] In panels A and B, the protein surface is colored according to its electrostatic potential (light grey: negative charge; dark grey: positive charge; white: lack of charge).
as §2, with “25. 5-acetoxy-2-hydroxybenzenesulfonic” for “24. 2-acetoxy-5-hydroxybenzenesulfonic”, “cation-π” for “cation-σ”
as §2, with “26. 2,5-diacetoxybenzenesulfonic” for “24. 2-acetoxy-5-hydroxybenzenesulfonic”, “cation-π” for “cation-σ”
Based on the crystal diffraction of the FGF-1:2-acetoxy-5-hydroxybenzene sulfonic acid, FGF-1:5-acetoxy-2-hydroxybenzene sulfonic acid and FGF-1:2,5-diacetoxybenzene sulfonic acid complexes, the structures of the complexes were calculated and represented. FIGS. 24, 25 and 26, which show the surface of the dyed protein according to its electrostatic potential (light grey: negative charge; dark grey: positive charge; white: lack of charge), show the manner in which 2-acetoxy-5-hydroxybenzene sulfonic acid, 5-acetoxy-2-hydroxybenzene sulfonic acid and 2,5-diacetoxybenzene sulfonic acid interact, respectively, with FGF-1.

[3] = tested on: human retinal endothelial cells (HREC); assay: Proliferation of human retinal endothelial cells (HREC, crystal violet); format: cell-based; settings: 72 h
Experimental: (§3) 2A-5HBS was administered or not administered (control) after seeding the HREC in 24-well plates (7.5×10^3 per well) until they were fixed after 72 hours. The data are expressed as the mean±SEM of the percentage of the absorbance at 595 nm obtained in the control cultures, which is proportional to the number of cells stained with crystal violet. The data were obtained from 6 cultures for each treatment in two separate experiments. The white bar represents the value of the control cells, whereas the gray bars show the value in the presence of 2A-5HBS (500 and 1000 μM). * indicates p<0.05, *** p<0.001 with respect to the control by means of a single-factor analysis of variance (ANOVA) followed by a Student-Newman-Keuls post-analysis.
as §3, with “5A-2HBS” for “2A-5HBS”, “striped” for “gray”, “***” for “*”, “indicates” for “indicates p<0.05, ***”
2,5-DHCME was administered or not administered (control) after seeding the HREC in 24-well plates (7.5×10^3 per well) until they were fixed after 72 hours. The data are expressed as the mean±SEM of the percentage of the absorbance at 595 nm obtained in the control cultures, which is proportional to the number of cells stained with crystal violet. The data were obtained from 6 cultures for each treatment in two separate experiments.
Primary cultures of human retinal endothelial cells (HREC) were used. Cells were obtained from Cell Systems (Virginia, USA) and subcultured with CSC complete medium (Cell Systems). Cells at 2 to 5 passages were seeded in 24-well plates at 7,500 cells/well density and, once attached, the cells were treated o not treated (controls) with 2A-5HBS (500 and 1000 μM) or 5A-2HBS (500 and 1000 μM) and they were allowed to proliferate for 72 hours, with daily medium changes. After that, the proliferation of HREC was evaluated by staining the fixed cells with crystal violet. The number of cells is proportional to the amount of retained dye, which was spectrophotometrically determined by measuring absorbance at 595 nm after removing the dye from the cells. Data are expressed as the percentage of absorbance at 595 nm obtained in control conditions. Data were obtained from two different experiments performed in triplicate.
Primary cultures of human retinal endothelial cells (HREC) were used. Cells were obtained from Cell Systems (Virginia, USA) and subcultured with CSC complete medium (Cell Systems). […] After that, the proliferation of HREC was evaluated by staining the fixed cells with crystal violet. The number of cells is proportional to the amount of retained dye, which was spectrophotometrically determined by measuring absorbance at 595 nm after removing the dye from the cells. Data are expressed as the percentage of absorbance at 595 nm obtained in control conditions. […]

rat C6 glioma cells = assay: Proliferation of rat glioma C6 cells (crystal violet); format: cell-based; settings: 500 μM, 48 h
Experimental: FIG. 23. […] 5A-2HBS and 2A-5HBS were administered or not (control) after seeding C6 cells in 24 well plates (10^4 per well) until they were fixed 48 hours later. Data are expressed as the mean±SEM of the percentage of absorbance at 595 nm obtained in control cultures, which is proportional to the number of cells stained with crystal violet. Data were obtained from 3 cultures for each treatment and 6 control cultures.
The cell line used was the C6 cell line and the experiment was carried out as described in examples 2 and 3. Once adhered, the cells were treated or not (controls) with (5A-2HBS) (500 μM) or (2A-5HBS) (500 μM) and they were allowed to proliferate for 48 h. After this time the glioma cell proliferation was evaluated by means of staining the fixed cells with crystal violet. The number of cells is proportional to the amount of retained dye, which was determined spectrophotometrically by measuring the absorbance at 595 nm once the dye was extracted from the cells.

[4] = tested on: corneal neovascularization; assay: Topical treatment of human corneal neovascularization; format: in vivo; settings: 5% solution of potassium salt, 4 drops a day topical, 19 days, one patient
Description: Photographs showing the presence of corneal neovascularization in a patient before being treated (A) and after 19 days of topical application of a solution containing 5% of potassium 2,5-dihydroxybenzoate (B). The treatment consisted of daily topical application of 4 drops of such solution.
4 drops a day were topically applied in a patient that presented a corneal neovascularization process refractory to any type of previous treatment.

In the case of `O=S(=O)([O-])c1cc(O)ccc1O.[K+]` [potassium 2,5-dihydroxybenzenesulfonate], the “increase of paw thickness / size of the lesion (infected vs non-infected paw)” value (Leishmania major) is reported as “Reduction in the size of the lesion”, the “increase of paw thickness / size of the lesion (infected vs non-infected paw)” value (Leishmania major; listed as potassium 2,5-dihydroxybenzene sulfonate) is reported as “significant reduction in the increase of paw thickness” and the FGF-1 induced mitogenesis [1] is reported as “Inhibition”.
For `CC(=O)Oc1ccc(O)cc1S(=O)(=O)[O-].[K+]` [2A-5HBS, potassium 2-acetoxy-5-hydroxybenzene sulfonate], the “acetoxyl groups of the compound when bound to the protein” value [2] was “conserve the acetoxyl groups”, the “binding site on FGF-1 in the crystal complex” value [2] was “a site that is very close to the one that has been described occupied by 2,5-dihydroxybenzene sulfonic acid” and the HREC proliferation ([3]; 500 μM) was “significant inhibition”. The HREC proliferation ([3]; 1000 μM) was “significant inhibition” and the “rat glioma cell proliferation” value (rat C6 glioma cells) was “inhibition”.
`CC(=O)Oc1ccc(O)c(S(=O)(=O)[O-])c1.[K+]` [5A-2HBS, potassium 5-acetoxy-2-hydroxybenzenesulfonate] was tested, and the “acetoxyl groups of the compound when bound to the protein” value [2] was “conserve the acetoxyl groups”, the “binding site on FGF-1 in the crystal complex” value [2] was “a site that is very close to the one that has been described occupied by 2,5-dihydroxybenzene sulfonic acid” and the FGF-1 induced mitogenesis [1] was “Inhibition”. For the same compound, the “rat glioma cell proliferation” value (rat C6 glioma cells) was “inhibition”.
For “calcium 2-acetoxy-5-hydroxybenzenesulfonate”, the FGF-1 induced mitogenesis [1] was “Inhibition”.
In the case of `COC(=O)C=Cc1cc(O)ccc1O` [2,5-DHCME, 2,5-dihydroxycinnamic acid methyl ester], the HREC proliferation ([3]; 50 μM) is reported as “significant inhibition” and the HREC proliferation ([3]; 100 μM) is reported as “significant inhibition”.
In the case of `O=C([O-])c1cc(O)ccc1O.[K+]` [2,5-dihydroxybenzoate, potassium 2,5-dihydroxybenzoate], the “degree of corneal vascularization” value [4] is reported as “remarkable reduction in the degree of corneal vascularization” and the “degree of corneal vascularization” value ([4]; listed as 2,5-dihydroxybenzoic acid) is reported as “noticeable reduction in the degree of corneal vascularization”.
